Values of other authors, collected in patent EP0916677A1, “METHOD FOR SEARCHING FOR PEPTIDES AND PROCESS FOR PRODUCING COMPOUNDS” (YAMANOUCHI PHARMACEUTICAL CO., LTD., priority 1996, dated 1998).

Molecular target: T1, trypsin (Bos taurus, UniProt P00760)
T1 sequence (P00760 24-246): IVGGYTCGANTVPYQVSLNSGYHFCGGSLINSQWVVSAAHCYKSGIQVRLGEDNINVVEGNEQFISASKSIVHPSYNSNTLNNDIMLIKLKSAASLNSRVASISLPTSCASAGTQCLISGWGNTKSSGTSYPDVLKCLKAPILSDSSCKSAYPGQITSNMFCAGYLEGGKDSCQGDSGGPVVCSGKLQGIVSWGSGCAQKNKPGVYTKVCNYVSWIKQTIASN
Settings: known from Eichler et al., Biochemistry, 1993, 32, 11035

Question: With Ac-TTKIFT-NH2 [TTKIFT, Ac-TTKIFT-NH2] as the substance, how does the trypsin inhibitory activity read?
Answer: high
